{"source": "patent US12263248B2", "about": "“Compounds and compositions for intracellular delivery of therapeutic agents” (ModernaTX, Inc., priority 2018, dated 2025)", "key": {"[1]": {"conditions": "rat, MC3-based mRNA containing LNP, 0.3 mg/kg dose mRNA; cited from earlier work"}, "[2]": {"assay": "One month toxicology evaluation in non-human primate: serum ALT and AST", "assay_type": "in vivo", "conditions": "cynomolgus monkeys, 1 mg/kg mRNA, intravenously by 60 min infusion, dosed weekly, 24 post fifth dose; PBS pre-dose vs day 30 levels", "procedure": "FIGS. 32A-32C are a series of graphs summarizing the results of a one month toxicology evaluation in rat and non-human primate. PBS (phosphate buffered saline) was used as a control. […] The serum levels were measured 24 post fifth dose (n=4). […] The serum levels were measured 24 post fifth dose (n=4)."}, "[3]": {"test_system": "human hepatocytes", "assay": "Metabolite profiling of Compound 18 with human hepatocytes", "assay_type": "in vitro ADME", "set-up": "key to Detection in incubation: +: Detected; ND: Not detected", "conditions": "Compound 18 (10 μM), human hepatocytes", "procedure": "The results of metabolic profiling and characterization for compound 18 incubated with human hepatocytes or human plasma are summarized in Tables 41 and 42, respectively."}, "[4]": {"test_system": "C5b9", "assay": "Complement activation indicators in non-human primates", "assay_type": "in vivo, Cynomolgus monkeys", "procedure": "(§1) The tolerability and efficacy of nanoparticle compositions to non-human primates was also investigated using a sample formulation including Compound 18. The formulation was prepared according to the standard MC3 formulation described above and included an hEPO mRNA. Primates were administered a single dose of 0.05 (Group 1), 0.3 (Group 2), or 1.0 (Group 3) mpk via intravenous infusion for 60 minutes. Three primates were administered each dose. Expression of hEPO was measured prior to dosing and at 2, 6, 24, 48, and 96 hours post-treatment (Table 26). Table 28 includes levels of indicators of complement activation, while Table 29 includes cytokine induction data.\n(§2) Serum C5b9 levels: C5b9 sample analysis was performed using an ELISA method. The kit used was Human C5b-9 ELISA Set and Reagent Set B from BD Bioscience. Study samples were analyzed in singlicate diluted 1/100."}, "[5]": {"assay": "Tissue distribution and liver tissue clearance of lipid after weekly intravenous doses to CD-1 mice", "assay_type": "in vivo", "conditions": "liver tissue, 0.25 mg/kg mRNA, weekly dosing", "description": "FIGS. 30A-30C are a series of graphs showing the pharmacokinetic and expression profile of Compound 18 after multiple doses. FIG. […]\nFIGS. 35A and 35B are a pair of graphs comparing the tissue distribution of MC3 and compound 18."}, "[6]": {"assay": "One-month toxicological evaluation with weekly dosing in rat", "assay_type": "in vivo, Sprague Dawley rat", "conditions": "weekly dosing 0.05, 0.5 and 2 mg/kg, one-month study", "procedure": "(§3) Serum ALT and AST levels: Samples were analyzed using a Modular Analytics analyzer.\n(§4) Next, tolerability and safety of the compound 18-based LNPs in vivo was tested. A full toxicological evaluation of compound 18-based LNPs in both Sprague Dawley rat and cynomolgus monkey was performed using a standard one-month study with weekly dosing at three dose levels in each species. Rats were dosed at 0.05, 0.5, and 2 mg/kg and a non-human primates was dosed at 0.1, 0.3, and 1 mg/kg. LNP-related toxicities associated with MC3-based LNP systems are generally associated with immunological (cytokine and complement activation) and hepatic injury. […] FIGS. 32 and 33 highlight the day 30 levels of alanine transferase (ALT, FIG. 32A) and aspartate aminotransferase (AST, FIG. 32B), two indicators of liver damage."}, "[7]": {"assay": "Metabolite identification of Compound 18 in human plasma", "assay_type": "in vitro ADME", "set-up": "key to Detection in incubation: +: Detected; ND: Not detected", "conditions": "for Detection in incubation: Compound 18 (10 μM), human plasma", "procedure": "Metabolite Identification: Compound 18 (10 μM) was incubated with human plasma (29.0 mg protein/incubation) in incubation mixtures (200 μL final incubation volume) that consisted of 50/50v/v neat plasma (undiluted)/substrate solution in 50 mM phosphate buffer, pH 7.4). The plasma was obtained from male and female donors and contained K2EDTA anticoagulant. Reactions were started by addition of the substrate solution to human plasma and were stopped at four designated time points (0, 30, 60 and 90 min) by the addition of 600 μL of stop reagent (acetonitrile). Stopped incubation samples were centrifuged (e.g., 10,000×g for 10 min at 10° C.) and the supernatant fractions were analyzed by LC-MS/MS to characterize the metabolites formed from compound 18. Additional incubations were performed with the positive control procaine (5 μM) to establish competency of the test system. Samples were analyzed by LC-MS/MS."}, "[8]": {"conditions": "Sprague Dawley, rat, in vivo, iv, 5 mg/kg, 20 min", "protocol": "Sprague Dawley rats were administered with nanoparticles of the disclosure via i.v. bolus at 5 mpk. The nanoparticle contained two mRNA encoding a broadly neutralizing influenza antibody in a 2:1 ratio."}, "[9]": {"assay": "One month toxicology evaluation: C5b9 and MCP-1 serum concentration in cynomolgus monkeys", "assay_type": "in vivo", "conditions": "1 mg/kg mRNA, day 1 and day 29, vs PBS", "description": "FIGS. 33A and 33B are a pair of graphs summarizing the results of a one month toxicology evaluation in rats and non-human primates."}, "[10]": {"assay": "Tolerability of Compound 18 formulation in non-human primates, single dose", "assay_type": "in vivo", "procedure": "as §1\nIn general, lower doses were better tolerated. High doses induced body temperature elevation and hunched posture, which is similar to the behavior observed for primates administered higher doses of MC3 formulations."}, "[11]": {"assay": "One-month toxicological evaluation with weekly dosing in cynomolgus monkey", "assay_type": "in vivo", "procedure": "as §3, §2\nbDNA for measurement of mRNA levels: mRNA sample analysis (bDNA method) was performed using the QuantiGene® 2.0 Reagent System kit from Affymetrix. Study samples were lysed prior to analysis using the QuantiGene Sample Processing Kit (Blood samples). Study samples were analyzed in duplicate diluted between 1/100 and 1/1250000.\nas §4"}, "[12]": {"conditions": "single dose 0.05, 0.3 or 1.0 mpk, i.v. infusion 60 minutes"}}}
{"smiles": "CCCCC/C=C\\C/C=C\\CCCCCCCCC(CCCCCCCC/C=C\\C/C=C\\CCCCC)OC(=O)CCCN(C)C", "note": "[MC3, DLin-MC3-DMA, reference compound]", "values": [{"measurement": "ALT, AST and pathology", "setting": "[1]", "value": "ALT and AST were elevated and pathology showed evidence of necrosis"}]}
{"smiles": "CCCCCCCCCOC(=O)CCCCCCCN(CCO)CCCCCCCC(=O)OC(CCCCCCCC)CCCCCCCC", "note": "[Compound 18, Heptadecan-9-yl 8-((2-hydroxyethyl)(8-(nonyloxy)-8-oxooctyl)amino)octanoate]", "values": [{"measurement": "serum alanine aminotransferase levels", "setting": "[2]", "value": "No statistical difference"}, {"measurement": "serum aspartate aminotransferase levels", "setting": "[2]", "value": "No statistical difference"}, {"measurement": "Detection in incubation", "setting": "[3]; 0 min", "value": "+"}, {"measurement": "Detection in incubation", "setting": "[3]; 60 min", "value": "+"}, {"measurement": "Detection in incubation", "setting": "[3]; 120 min", "value": "+"}, {"measurement": "Detection in incubation", "setting": "[3]; 240 min", "value": "+"}, {"measurement": "C3a", "setting": "[4]; 0.05 mpk, 2 h", "value": 19236, "unit": "ng/mL"}, {"measurement": "C5b9", "setting": "[4]; 0.05 mpk, 24 h", "value": 265, "unit": "ng/mL"}, {"measurement": "C5b9", "setting": "[4]; 0.05 mpk, Day 5", "value": 163, "unit": "ng/mL"}, {"measurement": "C3a", "setting": "[4]; 0.05 mpk, Predose", "value": 10600, "unit": "ng/mL"}, {"measurement": "C3a", "setting": "[4]; 0.3 mpk, 2 h", "value": 42897, "unit": "ng/mL"}, {"measurement": "C5b9", "setting": "[4]; 0.3 mpk, 24 h", "value": 614, "unit": "ng/mL"}, {"measurement": "C5b9", "setting": "[4]; 0.3 mpk, Day 5", "value": 405, "unit": "ng/mL"}, {"measurement": "C3a", "setting": "[4]; 0.3 mpk, Predose", "value": 9827, "unit": "ng/mL"}, {"measurement": "C3a", "setting": "[4]; 1.0 mpk, 2 h", "value": 75936, "unit": "ng/mL"}, {"measurement": "C5b9", "setting": "[4]; 1.0 mpk, 24 h", "value": 4798, "unit": "ng/mL"}, {"measurement": "C5b9", "setting": "[4]; 1.0 mpk, Day 5", "value": 534, "unit": "ng/mL"}, {"measurement": "C3a", "setting": "[4]; 1.0 mpk, Predose", "value": 12792, "unit": "ng/mL"}, {"measurement": "primary metabolite", "setting": "[5]", "value": "compound 166"}, {"measurement": "adverse findings", "setting": "[6]", "value": "no adverse findings"}, {"measurement": "Detection in incubation", "setting": "[7]; 0 min", "value": "+"}, {"measurement": "Detection in incubation", "setting": "[7]; 30 min", "value": "+"}, {"measurement": "Detection in incubation", "setting": "[7]; 60 min", "value": "+"}, {"measurement": "Detection in incubation", "setting": "[7]; 90 min", "value": "+"}, {"measurement": "initial step of metabolism", "setting": "[7]; in vitro metabolite identification studies", "value": "primary ester hydrolysis to compound 166"}, {"measurement": "Clinical Observations", "setting": "[8]", "value": "20 min- Flushed ears and paws"}, {"measurement": "C5b9 serum concentration", "setting": "[9]; all timepoints", "value": "No statistical difference"}, {"measurement": "MCP-1 serum concentration", "setting": "[9]; any timepoint other than the one marked *p<0.05", "value": "no statistical difference"}, {"measurement": "reticulocyte counts", "setting": "[10]; all groups, Day 5", "value": "marked increase"}, {"measurement": "tolerability of the formulation", "setting": "[10]; non-human primates, single dose", "value": "tolerated similarly to the MC3 formulation"}, {"measurement": "Complement activation and cytokine release (IL-6 and MCP-1)", "setting": "[10]; single dose 0.05, 0.3 or 1.0 mpk", "value": "dose-related and reversible"}, {"measurement": "Alanine aminotransferase (ALT) levels", "setting": "[10]; [12]", "value": "did not increase"}, {"measurement": "Aspartate aminotransferase (AST)", "setting": "[10]; [12]", "value": "increased in the high dose group on Day 2 and returned to baseline by Day 5"}, {"measurement": "ALT and AST levels", "setting": "[11]; 1 mg/kg dose, day 30", "value": "at the same level as the control"}, {"measurement": "C5b9 levels", "setting": "[11]; after dose 1 or dose 5", "value": "no significant change"}]}
